24 compounds from ChEMBL document CHEMBL3044745, “Synthesis and evaluation of biological and nonlinear optical properties of some novel 2,4-disubstituted [1,3]-thiazoles carrying 2-(aryloxymethyl)-phenyl moiety” (2013) can be followed below.

Common to all, as to type: functional
The subject of one assay is Rattus norvegicus. Description: Anti-inflammatory activity in Rattus norvegicus Wistar albino (rat) assessed as inhibition of carrageenan-induced paw edema at 10 mg/kg, po relative to untreated control.
In the next assay the test system is Escherichia coli. Briefly: Antibacterial activity against Escherichia coli assessed as growth inhibition at 10 ug/disk. The following applies: read-out: IZ.
Another assay has as its system Bacillus subtilis. Briefly: Antibacterial activity against Bacillus subtilis assessed as growth inhibition at 10 ug/disk. Conditions: read-out: IZ.
For a further assay, the system named is Aspergillus niger. Description: Antifungal activity against Aspergillus niger assessed as growth inhibition at 10 ug/disk. The following applies: read-out: IZ.
In another assay the test system is Staphylococcus aureus. Briefly: Antibacterial activity against Staphylococcus aureus assessed as growth inhibition at 10 ug/disk. Conditions: read-out: IZ.
A further assay concerns Candida albicans. Briefly: Antifungal activity against Candida albicans assessed as growth inhibition at 10 ug/disk. Conditions: read-out: IZ.
The test system of another assay is Pseudomonas aeruginosa. Briefly: Antibacterial activity against Pseudomonas aeruginosa assessed as growth inhibition at 10 ug/disk. The following applies: read-out: IZ.

Structures are written as SMILES.

Broadly, the inhibition in vivo is the percentage by which the read-out fell short of the control. Turning to `Clc1ccc(OCc2ccccc2-c2nc(CN3CCN(C(c4ccccc4)c4ccc(Cl)cc4)CC3)cs2)cc1` (centres undefined), in the assay on Rattus norvegicus, the inhibition in vivo at 10 mg/kg was 76.4%. The zone of inhibition at 10 µg/disc in the assay on Escherichia coli is 28 mm; in the assay on Bacillus subtilis it was 26 mm; with Aspergillus niger, 25 mm; in the assay with Staphylococcus aureus it was 27 mm; in the assay on Candida albicans, 28 mm; in the assay on Pseudomonas aeruginosa, 26 mm.
Take `Cc1ccccc1OCc1ccccc1-c1nc(COc2ccc(Cl)cc2)cs1`: the inhibition in vivo at 10 mg/kg in the assay on Rattus norvegicus stood at 65.1%. In addition, the zone of inhibition at 10 µg/disc in the assay on Escherichia coli was found to be 22 mm; with Bacillus subtilis it was 18 mm; with Aspergillus niger, 16 mm; in the assay with Staphylococcus aureus, 20 mm; with Candida albicans, 20 mm; in the assay with Pseudomonas aeruginosa, 20 mm.
As for `Cc1cccc(OCc2ccccc2-c2nc(COc3ccc(Cl)cc3)cs2)c1`, the inhibition in vivo at 10 mg/kg with Rattus norvegicus turned out to be 67.7%. The zone of inhibition at 10 µg/disc in the assay on Escherichia coli amounted to 20 mm; in the assay with Bacillus subtilis, 22 mm; in the assay on Aspergillus niger it was 18 mm; in the assay with Staphylococcus aureus, 24 mm; in the assay on Candida albicans it was 22 mm; in the assay on Pseudomonas aeruginosa, 18 mm.
On to `Cc1ccc(OCc2ccccc2-c2nc(COc3ccc(Cl)cc3)cs2)cc1`, for which, in the assay with Rattus norvegicus, the inhibition in vivo at 10 mg/kg was 68.7%. The zone of inhibition at 10 µg/disc came to 24 mm in the assay with Escherichia coli; 19 mm in the assay on Bacillus subtilis; 18 mm with Aspergillus niger; 22 mm with Staphylococcus aureus; 20 mm in the assay with Candida albicans; 17 mm in the assay on Pseudomonas aeruginosa.
Turning to `Clc1ccc(OCc2csc(-c3ccccc3COc3ccc(Cl)cc3)n2)cc1`, the inhibition in vivo at 10 mg/kg with Rattus norvegicus worked out at 76.4%. Moreover, the zone of inhibition at 10 µg/disc was found to be 26 mm with Escherichia coli; 27 mm with Bacillus subtilis; 24 mm in the assay with Aspergillus niger; 28 mm in the assay with Staphylococcus aureus; 26 mm in the assay with Candida albicans; 24 mm in the assay with Pseudomonas aeruginosa.
For the compound `NS(=O)(=O)c1sc(Cl)cc1-c1csc(-c2ccccc2COc2ccc(Cl)cc2)n1`, the inhibition in vivo at 10 mg/kg with Rattus norvegicus came to 76.4%. Further, the zone of inhibition at 10 µg/disc in the assay on Escherichia coli is 26 mm; in the assay on Bacillus subtilis it was 28 mm; in the assay on Aspergillus niger, 24 mm; with Staphylococcus aureus, 28 mm; in the assay on Candida albicans, 26 mm; in the assay on Pseudomonas aeruginosa, 24 mm.
For `Cc1ccccc1OCc1ccccc1-c1nc(-c2cccc(Br)c2)cs1`, the inhibition in vivo at 10 mg/kg in the assay on Rattus norvegicus amounted to 40.4%. For the same compound, the zone of inhibition at 10 µg/disc in the assay on Escherichia coli is 8 mm; in the assay with Bacillus subtilis it was 12 mm; in the assay with Aspergillus niger it was 11 mm; in the assay with Staphylococcus aureus it was 10 mm; with Candida albicans, 10 mm; in the assay with Pseudomonas aeruginosa it was 8 mm.
Turning to `Cc1cccc(OCc2ccccc2-c2nc(-c3cccc(Br)c3)cs2)c1`, the inhibition in vivo at 10 mg/kg in the assay on Rattus norvegicus was 46.7%. Moreover, the zone of inhibition at 10 µg/disc with Escherichia coli was found to be 10 mm; in the assay with Bacillus subtilis, 10 mm; in the assay with Aspergillus niger it was 16 mm; with Staphylococcus aureus, 12 mm; with Candida albicans it was 14 mm; in the assay on Pseudomonas aeruginosa, 10 mm.
On to `Cc1ccc(OCc2ccccc2-c2nc(-c3cccc(Br)c3)cs2)cc1`, for which, in the assay with Rattus norvegicus, the inhibition in vivo at 10 mg/kg was found to be 44.5%. For the same compound, the zone of inhibition at 10 µg/disc in the assay on Escherichia coli is 8 mm; in the assay on Bacillus subtilis, 12 mm; in the assay with Aspergillus niger it was 11 mm; in the assay on Staphylococcus aureus it was 10 mm; with Candida albicans it was 14 mm; in the assay with Pseudomonas aeruginosa it was 10 mm.
For the compound `Clc1ccc(OCc2ccccc2-c2nc(-c3cccc(Br)c3)cs2)cc1`, the inhibition in vivo at 10 mg/kg in the assay with Rattus norvegicus was determined as 42.9%. In addition, the zone of inhibition at 10 µg/disc with Escherichia coli is 22 mm; in the assay with Bacillus subtilis it was 20 mm; with Aspergillus niger it was 18 mm; in the assay with Staphylococcus aureus, 22 mm; with Candida albicans, 20 mm; with Pseudomonas aeruginosa it was 18 mm.
Take `Cc1ccccc1OCc1ccccc1-c1nc(-c2ccc([N+](=O)[O-])cc2)cs1`: the inhibition in vivo at 10 mg/kg in the assay with Rattus norvegicus turned out to be 46.7%. The zone of inhibition at 10 µg/disc with Escherichia coli was determined as 14 mm; in the assay with Bacillus subtilis, 12 mm; in the assay on Aspergillus niger it was 14 mm; with Staphylococcus aureus, 10 mm; with Candida albicans it was 12 mm; with Pseudomonas aeruginosa, 10 mm.
Take `Cc1cccc(OCc2ccccc2-c2nc(-c3ccc([N+](=O)[O-])cc3)cs2)c1`: in the assay on Rattus norvegicus, the inhibition in vivo at 10 mg/kg amounted to 46.7%. The zone of inhibition at 10 µg/disc in the assay on Escherichia coli came to 11 mm; in the assay on Bacillus subtilis it was 12 mm; in the assay on Aspergillus niger it was 8 mm; in the assay on Staphylococcus aureus, 8 mm; in the assay on Candida albicans, 9 mm; in the assay on Pseudomonas aeruginosa, 10 mm.
In the case of `Cc1ccc(OCc2ccccc2-c2nc(-c3ccc([N+](=O)[O-])cc3)cs2)cc1`, the inhibition in vivo at 10 mg/kg in the assay on Rattus norvegicus was determined as 56.9%. Also, the zone of inhibition at 10 µg/disc in the assay with Escherichia coli came out at 10 mm; with Bacillus subtilis it was 10 mm; with Aspergillus niger, 14 mm; in the assay with Staphylococcus aureus, 12 mm; with Candida albicans, 11 mm; in the assay on Pseudomonas aeruginosa it was 12 mm.
`O=[N+]([O-])c1ccc(-c2csc(-c3ccccc3COc3ccc(Cl)cc3)n2)cc1`: the inhibition in vivo at 10 mg/kg in the assay with Rattus norvegicus came to 67.1%. The zone of inhibition at 10 µg/disc with Escherichia coli is 22 mm; in the assay with Bacillus subtilis it was 18 mm; in the assay on Aspergillus niger it was 18 mm; with Staphylococcus aureus it was 22 mm; in the assay with Candida albicans, 20 mm; with Pseudomonas aeruginosa, 18 mm.
In the case of `Cc1ccccc1OCc1ccccc1-c1nc(CN2CCN(C(c3ccccc3)c3ccccc3)CC2)cs1`, in the assay on Rattus norvegicus, the inhibition in vivo at 10 mg/kg was found to be 64%. In addition, the zone of inhibition at 10 µg/disc in the assay on Escherichia coli is 20 mm; in the assay with Bacillus subtilis, 23 mm; with Aspergillus niger, 8 mm; in the assay with Staphylococcus aureus, 23 mm; in the assay with Candida albicans, 9 mm; in the assay with Pseudomonas aeruginosa, 18 mm.
With `Cc1cccc(OCc2ccccc2-c2nc(CN3CCN(C(c4ccccc4)c4ccccc4)CC3)cs2)c1`, the inhibition in vivo at 10 mg/kg in the assay on Rattus norvegicus came to 64.1%. In addition, the zone of inhibition at 10 µg/disc was determined as 22 mm in the assay with Escherichia coli; 20 mm in the assay on Bacillus subtilis; 11 mm with Aspergillus niger; 19 mm in the assay on Staphylococcus aureus; 10 mm in the assay on Candida albicans; 20 mm in the assay with Pseudomonas aeruginosa.
Take `Cc1ccc(OCc2ccccc2-c2nc(CN3CCN(C(c4ccccc4)c4ccccc4)CC3)cs2)cc1`: in the assay with Rattus norvegicus, the inhibition in vivo at 10 mg/kg was 63.9%. In addition, the zone of inhibition at 10 µg/disc was 18 mm in the assay with Escherichia coli; 21 mm in the assay with Bacillus subtilis; 8 mm in the assay on Aspergillus niger; 20 mm in the assay on Staphylococcus aureus; 10 mm with Candida albicans; 18 mm in the assay on Pseudomonas aeruginosa.
In the case of `Clc1ccc(OCc2ccccc2-c2nc(CN3CCN(C(c4ccccc4)c4ccccc4)CC3)cs2)cc1`, the inhibition in vivo at 10 mg/kg in the assay on Rattus norvegicus came out at 64.9%. For the same compound, the zone of inhibition at 10 µg/disc with Escherichia coli came out at 28 mm; in the assay on Bacillus subtilis, 26 mm; in the assay on Aspergillus niger, 24 mm; in the assay on Staphylococcus aureus it was 28 mm; in the assay on Candida albicans, 28 mm; in the assay on Pseudomonas aeruginosa it was 26 mm.
Take `Cc1ccccc1OCc1ccccc1-c1nc(CN2CCN(C(c3ccccc3)c3ccc(Cl)cc3)CC2)cs1` (centres undefined): in the assay on Rattus norvegicus, the inhibition in vivo at 10 mg/kg came to 63.1%. Besides, the zone of inhibition at 10 µg/disc is 26 mm in the assay with Escherichia coli; 28 mm in the assay on Bacillus subtilis; 20 mm in the assay with Aspergillus niger; 28 mm in the assay on Staphylococcus aureus; 22 mm in the assay on Candida albicans; 24 mm in the assay with Pseudomonas aeruginosa.
As for `Cc1cccc(OCc2ccccc2-c2nc(CN3CCN(C(c4ccccc4)c4ccc(Cl)cc4)CC3)cs2)c1` (centres undefined), the inhibition in vivo at 10 mg/kg in the assay on Rattus norvegicus stood at 62.6%. Besides, the zone of inhibition at 10 µg/disc was found to be 27 mm in the assay with Escherichia coli; 28 mm with Bacillus subtilis; 18 mm in the assay on Aspergillus niger; 28 mm with Staphylococcus aureus; 20 mm in the assay on Candida albicans; 25 mm with Pseudomonas aeruginosa.
As for `Cc1ccc(OCc2ccccc2-c2nc(CN3CCN(C(c4ccccc4)c4ccc(Cl)cc4)CC3)cs2)cc1` (centres undefined), the inhibition in vivo at 10 mg/kg in the assay with Rattus norvegicus came to 56.9%. For the same compound, the zone of inhibition at 10 µg/disc with Escherichia coli came out at 28 mm; in the assay with Bacillus subtilis, 28 mm; in the assay on Aspergillus niger, 19 mm; in the assay on Staphylococcus aureus, 28 mm; in the assay with Candida albicans, 20 mm; in the assay with Pseudomonas aeruginosa, 24 mm.
Turning to `O=C(O)c1cn(C2CC2)c2cc(N3CCNCC3)c(F)cc2c1=O` [CIPROFLOXACIN], the zone of inhibition at 10 µg/disc in the assay with Escherichia coli amounted to 28 mm; in the assay on Bacillus subtilis it was 26 mm; with Staphylococcus aureus, 26 mm; in the assay with Pseudomonas aeruginosa, 25 mm.
For the compound `O=C(O)Cc1ccccc1Nc1c(Cl)cccc1Cl` [DICLOFENAC SODIUM], the inhibition in vivo at 10 mg/kg in the assay with Rattus norvegicus was 75.9%.
Consider `OC(Cn1cncn1)(Cn1cncn1)c1ccc(F)cc1F` [FLUCONAZOLE], for which the results for the zone of inhibition at 10 µg/disc with Aspergillus niger and in the assay with Candida albicans were 25 mm and 26 mm, respectively.
